The record followed here is PubChem BioAssay AID2387 (Broad Institute, 2010).

The experiment deals with Candida albicans CaCi-2 growth (no fluconazole), Alamar Blue. Put plainly: C. albicans growth inhibition without fluconazole, dose response, counter-screen for fluconazole resistance reversal project, CaCi-2 strain, Alamar Blue fluorescence (AID 2387). Conditions: C. albicans CaCi-2 (fluconazole-resistant clinical isolate) growth without fluconazole, 48 h. A general note: Counterscreens check selectivity or assay interference.

The source made the active and inactive calls.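 The calls were made as follows: active = fitted EC50 no more than tenfold above the highest tested concentration; inconclusive = flat fit with 30 to 70% signal loss, or poor fit; inactive = the rest.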 A value given as a limit tells only on which side of the number the result lay.

A word on the EC50: it is the concentration needed to bring the measured effect to its halfway point. For the molecule `CCC(=O)NC(c1cccs1)c1cc([N+](=O)[O-])c2cccnc2c1O` (stereo not drawn), the EC50 was > 15 µM (inactive). With `CCNC(=S)NNC(=O)c1cc(-c2ccccc2C)nc2ccccc12` the figure was > 16 µM (inactive); with `CCCC(=O)NC(c1ccccc1)c1ccc2cccnc2c1O` (stereo not drawn), > 16 µM (inactive).

Take `[O-][N+]1=c2ccc(Nc3ccccc3)cc2=NC12CCCCC2`: the EC50 is > 15 µM (inactive). With `COc1cccc(N=Nc2ccc3cccnc3c2O)c1` the figure was 1.05 µM; with `COc1cccc(C2CC(c3ccc(NS(C)(=O)=O)cc3)=NN2C(=O)c2ccccc2)c1OC` (stereo not drawn), > 15 µM (inactive); with `COc1ccccc1NC1=C(N2CCCCC2)C(=O)c2ccccc2C1=O`, > 16 µM (inactive). With `Clc1ccc2c(c1)C(c1cccs1)=NNC(c1cccnc1)=N2` the figure was > 15 µM (inactive); with `N#C/C(=C\c1ccc(N2CCOCC2)cc1)c1ccccc1`, > 16 µM (inactive).

Take `Cc1cc(C)c(-c2cc(NC(=O)COC(=O)c3ccc(C#N)cc3)n(-c3ccccc3)n2)cc1C`: the EC50 was > 16 µM (inactive). With `COc1ccc(-n2nc(C(=O)NCC(=O)N3CCN(c4ccc(F)cc4)CC3)c3ccccc3c2=O)c(OC)c1` the figure was > 15 µM (inactive); with `CCCCCCOC(=O)C[N+](C)(C)CCOC1CC2CCC1(C)C2(C)C` (stereo not drawn), > 16 µM (inactive). With `O=C(c1cc2ccccc2cc1O)N1CCN(c2ccccc2O)CC1` the figure was > 15 µM (inactive); with `O=C(c1ccc(Cn2c(=S)[nH]c3ccccc3c2=O)cc1)N1CCN(c2ccccn2)CC1`, > 15 µM (inactive); with `Cc1cc(C(=O)Nc2sc3c(c2C#N)CCCC3)no1`, > 16 µM (inactive). `c1ccc(CC2CCN(c3ncnc4sccc34)CC2)cc1`: the EC50 was > 16 µM (inactive). With `Oc1c(C(c2ccccc2Cl)N2CCCC2)ccc2cccnc12` (stereo not drawn) the figure was 14.3 µM; with `O=C(Nc1nnc(-c2ccncc2)o1)c1ccc2ccccc2c1`, > 15 µM (inactive); with `CCN(Cc1ccccc1)S(=O)(=O)c1ccc(C(=O)Nc2nnc(-c3ccccc3OC)o2)cc1`, > 15 µM (inactive). In the case of `COc1ccc(-c2nnc(NC(=O)c3ccc(S(=O)(=O)N4CCCc5ccccc54)cc3)o2)cc1`, the half-maximal effective concentration (EC50) is 13.3 µM.

As for `COC(=O)c1ccc(COc2ccc(/C=C(\C#N)c3nc4ccccc4[nH]3)cc2OC)o1`, the EC50 was > 16 µM (inactive). With `Cc1ccc(-n2c(O)c(C=Nc3ccccc3-c3n[nH]c(=S)[nH]c3=O)c3ccccc3c2=O)cc1C` the figure was > 16 µM (inactive); with `O=C(Oc1c(Cl)cc(Cl)c2cccnc12)c1ccco1`, 1.17 µM; with `CCc1cc(C(=O)NC2CCCc3c2cnn3-c2cccc(C)c2C)n(C)n1` (stereo not drawn), > 15 µM (inactive). With `CCCC(=O)NC(c1ccc(Cl)cc1)c1ccc2cccnc2c1O` (stereo not drawn) the figure was 16.1 µM; with `Clc1ccccc1C(c1ccccc1)(c1ccccc1)n1ccnc1`, 1.58 µM.

On to `O=C(Cc1nc2ccccc2s1)c1ccc(O)cc1O`, for which the EC50 was > 16 µM (inactive). Regarding `O=C(c1cc2c(s1)CCCCC2)N1CCN(c2ncccn2)CC1`, the EC50 is > 16 µM (inactive). Regarding `CCN1/C(=C/C=C/c2oc3ccc(-c4ccccc4)cc3[n+]2CC)Oc2ccc(-c3ccccc3)cc21`, the concentration for a half-maximal effect (EC50) is 6.54 µM. For the molecule `CC(C)N1CCc2c(sc(NC(=O)c3nc4ccccc4s3)c2C(N)=O)C1`, the EC50 was > 15 µM (inactive). With `Cc1c(Cl)c([N+](=O)[O-])nn1Cc1ccc(C(=O)N/N=C\c2cc(Cl)ccc2O)o1` the figure was > 16 µM (inactive); with `COCCn1c(=O)[nH]c(=O)c2cc(C(=O)c3cc(Cl)ccc3O)cnc21`, > 16 µM (inactive); with `Cc1ccc(-n2nc(C)c3c(C)cc(=O)[nH]c32)cc1`, > 15 µM (inactive). With `COc1cccc(N=Nc2ccc(O)c3ncccc23)c1` the figure was 1.26 µM.

For `CN(C)S(=O)(=O)Oc1cccc(C(=O)Nc2cccc(Cl)c2)c1`, the EC50 is > 15 µM (inactive). As to `Cc1c(Cl)ccc2c1NC(=O)[C@]21N[C@@H](Cc2ccccc2)[C@H]2C(=O)N(c3ccc(F)cc3)C(=O)[C@H]21`, the EC50 is > 16 µM (inactive).

For `CCOc1ccc(N=Nc2ccc(O)c3ncccc23)cc1`, the EC50 is 2.3 µM. With `Cc1oc2c(F)c(F)c(F)c(F)c2c1S(=O)(=O)Nc1cccc(C(F)(F)F)c1` the figure was > 16 µM (inactive); with `Cc1cc(N/N=C/c2c(O)ccc3ccccc23)nc(-c2ccccc2O)n1`, > 16 µM (inactive).

Consider `CCC(=O)NC(c1ccc(C)cc1)c1cc([N+](=O)[O-])c2cccnc2c1O` (stereo not drawn), for which the EC50 was > 15 µM (inactive). With `COc1cccc(/C=N/Nc2ncnc3scc(-c4ccccc4)c23)c1O` the figure was 6.58 µM; with `CCCCC(=O)NC(c1ccccc1)c1ccc2cccnc2c1O` (stereo not drawn), > 15 µM (inactive). With `COc1ccc(-c2nnc(NC(=O)c3ccc(S(=O)(=O)N4CCc5ccccc5C4)cc3)o2)cc1`, the EC50 is > 15 µM (inactive). With `Cc1ccnc(Sc2ccc([N+](=O)[O-])cc2[N+](=O)[O-])n1` the figure was > 15 µM (inactive); with `O=[N+]([O-])c1cc(CN2CCN(c3ccccc3)CC2)c(O)c2ncccc12`, 6.17 µM.

`COc1cccc(/C=N/NC(=O)c2c(C)nc3ccc(Br)cn23)c1O`: the EC50 was > 16 µM (inactive). With `CN1CCN(C(c2ccc(C(F)(F)F)cc2)c2cc(Cl)c3cccnc3c2O)CC1` (stereo not drawn) the figure was 2.45 µM; with `O=C(NCc1ccccc1)c1sc(=S)n2c1[nH]c(=O)c1ccccc12`, > 15 µM (inactive); with `C=CCOC(=O)c1sc(NC(=O)c2ccco2)nc1C`, > 15 µM (inactive). In the case of `O=[N+]([O-])c1ccc(O)c(P(=O)(c2ccccc2)c2ccccc2)c1`, the EC50 is > 15 µM (inactive). With `CS/C(=N\S(=O)(=O)c1cccs1)Nc1ccc(Br)cc1F` the figure was > 15 µM (inactive).

As to `O=C(O)c1ccccc1-c1ccccc1C(=O)Nc1cccc(-c2nc3ccccc3o2)c1`, the EC50 was > 15 µM (inactive). With `CCC(C)n1cnc2c(c1=O)c1nc3ccccc3nc1n2Cc1ccc(OC)cc1` (stereo not drawn), the EC50 is > 16 µM (inactive). In the case of `O=C(NC(Nc1nc2ccc([N+](=O)[O-])cc2s1)(C(F)(F)F)C(F)(F)F)c1ccccc1Cl`, the EC50 was > 16 µM (inactive).

On to `COc1ccc(C(c2c(O)ccc3ccccc23)N2CCOCC2)c(OC)c1` (stereo not drawn), for which the EC50 is > 16 µM (inactive). Turning to `COc1ccc(C2c3ccc4ccccc4c3Oc3ncn(CCN4CCOCC4)c(=N)c32)cc1` (stereo not drawn), the EC50 is > 16 µM (inactive). With `O=C(c1ccc(Cl)cc1)N1CCN(c2ccnc3cc(Cl)ccc23)CC1` the figure was > 15 µM (inactive); with `Oc1ccc(N=Nc2ccc3c(c2)OCCO3)c2cccnc12`, 3.65 µM; with `O=[N+]([O-])c1cc(O)c2ncccc2c1`, 12.3 µM. With `CCOc1ccc(-c2ccc(NS(=O)(=O)c3ccc([N+](=O)[O-])cc3)cc2)nn1` the figure was > 15 µM (inactive). In the case of `COc1cc2c(cc1NC(=O)c1ccco1)CCCC2`, the EC50 is > 15 µM (inactive). `O=C1/C(=C/c2cccnc2)CCc2c1[nH]c1ccccc21`: the EC50 was > 15 µM (inactive). As for `[O-][n+]1cccc2c(Br)cc(Br)c(O)c21`, the EC50 was 16.4 µM.

Turning to `Nc1c(S(=O)(=O)c2ccccc2)c2nc3ccccc3nc2n1CCN1CCOCC1`, the EC50 was > 16 µM (inactive). Take `Nc1[nH]c(=O)ncc1F`: the EC50 is > 16 µM (inactive). With `O=C(NNC(=S)Nc1ccc(Cl)c(Cl)c1)c1ccccn1` the figure was 11.3 µM. Consider `O=C(NCc1ccco1)c1sc(=S)n2c1[nH]c(=O)c1ccccc12`, for which the EC50 was > 16 µM (inactive).

As to `COc1cccc(COc2cc3ccccc3nc2C)c1`, the EC50 is > 16 µM (inactive). With `Clc1ccc(CONc2ncnc3nonc23)c(Cl)c1` the figure was > 16 µM (inactive); with `O=[N+]([O-])c1nn(-c2ccc(Cl)cc2)n(O)c1=NCc1cccnc1`, > 15 µM (inactive); with `CC(C)CCN1C(=O)c2ccc(C(=O)Nc3ccc(Br)cc3C(=O)O)cc2C1=O`, > 16 µM (inactive).

Regarding `CCCCc1c(O)nc(SCC(=O)Nc2cccc3ccccc23)n(-c2ccccc2OC)c1=O`, the EC50 is > 16 µM (inactive). As for `COc1ccc(-c2nnc(NC(=O)c3ccc(F)cc3)o2)cc1`, the EC50 is > 15 µM (inactive). In the case of `CCc1ccc(C2c3[nH]c4ccccc4c3CCN2C(=O)c2ccc(=O)n(C)n2)cc1` (stereo not drawn), the EC50 is > 16 µM (inactive). With `CC(=O)NC1CCCN(O)C(=O)/C=C(\C)CCOC(=O)C(NC(C)=O)CCCN(O)C(=O)/C=C(\C)CCOC(=O)C(NC(C)=O)CCCN(O)C(=O)/C=C(\C)CCOC1=O` (stereo not drawn) the figure was 2.05 µM; with `CCC(C)c1ccc(O)c(NC(=S)NC(=O)c2cccnc2)c1` (stereo not drawn), > 15 µM (inactive). As for `CCC(=O)NC(c1ccc(OC)cc1)c1cc(Cl)c2cccnc2c1O` (stereo not drawn), the EC50 was > 16 µM (inactive). Regarding `CCCC(=O)NC(c1cccs1)c1cc(Cl)c2cccnc2c1O` (stereo not drawn), the EC50 was 12 µM. With `CC(=O)NC(c1ccc(C)cc1)c1cc([N+](=O)[O-])c2cccnc2c1O` (stereo not drawn) the figure was > 16 µM (inactive). Regarding `NC(=O)c1c(NC(=O)c2ccco2)sc2c1CCC2`, the EC50 is > 15 µM (inactive).

Turning to `Cc1cc(NC(c2ccc(Cl)cc2)c2ccc3cccnc3c2O)no1` (stereo not drawn), the half-maximal effective concentration (EC50) was 3.53 µM. As for `Cc1cc(O)ccc1NC(=S)NC(=O)c1cncc(Br)c1`, the EC50 was > 16 µM (inactive). As to `C=CCNC(=S)N/N=C(\C)c1ccccn1`, the EC50 was 4.96 µM. With `CC(C)COCc1ccc(O)c2ncccc12`, the concentration for a half-maximal effect (EC50) was 16.1 µM. Turning to `Cc1c(O)c2c3c(cccc3c1O)C(=O)N(c1ccccc1)C2=O`, the EC50 was > 15 µM (inactive).

As to `Cn1cc(C(c2ccccn2)c2cn(C)c3ccccc23)c2ccccc21`, the EC50 was > 15 µM (inactive). With `Oc1cccc(C(Nc2nccs2)c2ccc3cccnc3c2O)c1` (stereo not drawn) the figure was > 16 µM (inactive); with `Cc1ccc(S(=O)(=O)N(C)c2ccc(OCC(=O)Nc3nnc(C4CC4)s3)cc2)cc1`, > 15 µM (inactive).
